Data from patent US12234288B2, “Immunogenic arginase 2 polypeptides” (IO Biotech ApS, priority 2018, dated 2025).
“Also recorded” adds a separate entry of the source.

Experiments:
[1] = system: PBMCs (CD4+ and CD8+ T cells); experiment: Intracellular cytokine staining (IFNγ, TNFα) of peptide-stimulated PBMCs by flow cytometry; assay type: cell-based, human; details: for double positive (DP) CD4+ cells: FIG. 6; for intracellular cytokine staining for IFNy and TNFα production: healthy donors and cancer patients with solid tumors, Example 2, FIG. 14B/15D
Procedure: Intracellular staining of cell cultures was performed after PBMCs were stimulated with arginase-derived peptides (or incubated with no peptide as a control) for 5 hours in the presence of BD GolgiPlug™ (added after the first hour of peptide stimulation). Stimulated cells were stained with fluorescently labeled antibodies for surface markers (CD3, CD4, CD8) and thereafter permeabilized by using Fixation/Permeabilization and Permeabilization Buffer (eBioscience, cat. 00-{5123-43), according to manufacturer's instructions. Permeabilized cells were then stained with fluorochrome-labeled antibodies for IFNγ and TNFα. Flow cytometry analysis was performed on a FACSCanto™ II (BD Biosciences). Antibodies used: IFNγ-APC (cat.341117), TNFα-[…] BV421 (cat.562783), CD4-FITC (cat.347413), CD8-PerCP (cat.345774), CD3-APC-H7 (cat. 560275) (all from BD Biosciences), dead cells stain-FVS510 (564406, BD Biosciences) according to manufacturer's instructions.
Intracellular staining of cell cultures was performed on PBMCs after one week of ARG2-derived peptide stimulation in vitro. For the assay, 9×10^5 PBMCs were re-stimulated with ARG2-derived peptides (or incubated with no peptide as a control) for 5 hours in the presence of BD GolgiPlug™ (added after the first hour of peptide stimulation). Stimulated cells were stained with fluorescently labeled antibodies for surface markers (CD3, CD4, CD8) and thereafter permeabilized by using Fixation/Permeabilization and Permeabilization Buffer (eBioscience, cat. 00-{5123-43), according to manufacturer's instructions. Permeabilized cells were then stained with fluorochrome-labeled antibodies for IFNγ and TNFα. Flow cytometry analysis was performed on a FACSCanto™ II (BD Biosciences). Antibodies used: IFNγ-APC, TNFα-BV421, CD4-PerCP, CD8-FITC, CD3-APC-H7, CD4-FITC, CD8-PerCP, and dead cells stain-FVS510 (all from BD Biosciences) according to manufacturer's instructions. For intracellular cytokine staining to detect cytokine production of ARG2-specific T cells in response to target cells, 5×10^5 ARG2 specific cells were incubated with 2.5×10^5 target cells for 5 hours with GolgiPlug™ added after the first hour.

[2] = system: PBMCs from healthy donors and cancer patients; experiment: IFNγ ELISPOT of PBMCs pre-stimulated one week in vitro with peptide and low-dose IL-2; assay type: cell-based, human; details: for IFNγ ELISPOT response: ARG2 peptide library screen, PBMCs from 6 healthy donors, FIG. 3
Procedure: For in vitro ELISPOT, PBMCs from cancer patients and healthy donors were pulsed with 20 μM of […] (or with no peptide as a control) and 120 U/ml IL-2 in 24-well plates for 7 days before being used in an ELISPOT assay. The cells were placed in 96-well nitrocellulose ELISPOT plates (MultiScreen MAIP N45; Millipore) pre-coated with IFNγ capture antibody (Mabtech). Arginase peptides added to a final concentration of 5 μM and plates incubated at 37° C. for 14-16 hours. After the incubation the cells were washed off and secondary biotinylated Ab (Mabtech, cat. 3420-{6-1000) was added for 2 hours at room temperature. Unbound secondary antibody was washed off and streptavidin conjugated alkaline phosphatase (AP) (Mabtech, cat. 3310-10) was added for 1 hour at room temperature. Unbound conjugated enzyme was washed off and the assay was developed by adding BCIP/NBT substrate (Mabtech, cat. 3650-10). Developed ELISPOT plates were analyzed on CTL ImmunoSpot S6 Ultimate-V analyzer using Immunospot software v5.1. Responses were reported as the difference between average numbers of spots in wells stimulated with arginase2 and wells without added peptide.
To test whether these peptides could be used to identify Arginase2 responses, PBMCs from 12 healthy donors and one cancer patients were screened for responses in IFNγ ELISPOT. PBMCs were stimulated with Arginase2 peptides and low dose IL-2 for 1 week prior to ELISPOT.
The entire arginase2 protein sequence was divided into overlapping 20-amino-acid-long peptides (with a final peptide of 24 amino acids), generating a library of 34 peptides covering the whole sequence (SEQ ID NOs 1-34)). Each peptide in the library overlapped with the first 10 amino acids of the following peptide. Using this arginase2 peptide library and the IFNγ ELISPOT assay, we next screened PBMCs from 6 healthy donors for spontaneous responses. The PBMCs were stimulated for one week with a pool of 3-4 adjacent 20-mer arginase2 library peptides and low-dose IL-2 (120 U/mL). They were then set up for an IFNγ ELISPOT assay to screen for responses against each 20-mer peptide separately.
PBMCs from two healthy donors were stimulated for one week with a single peptide and low-dose IL-2 (120 U/mL) before IFNy ELISPOTassay to validate the responses observed in the library screen.
PBMCs from […] were stimulated for one week with a single peptide and low-dose IL-2 (120 U/mL) before IFNy ELISPOTassay to validate the responses observed in the library screen. ARG2_1, ARG2_5, ARG2_13, ARG2_18 and ARG2_22 were tested in this validation.
ARG2_1 was used to screen for responses in 8 melanoma patients (AA07-AA31), 4 prostate cancer patients (UR07-27) and 13 healthy donors. PBMCs from each were stimulated for one week with a single peptide and low-dose IL-2 (120 U/mL) before IFNy ELISPOT assay.
PBMCs from healthy donors or cancer patients were stimulated with 10 μM of ARG2-derived peptides in vitro to enhance assay sensitivity. On day 2, IL-2 was added to a total of 120 U/ml IL-2 (Novartis). After 7 days, 4-6×10^5 PBMCs were placed at the bottom of an ELISPOT plate pre-coated with IFNy capture antibody (Mabtech). PBMCs from each donor or patient were set up in triplicates or quadruplicates for peptide (5 μM ARG2-derived peptide) and control stimulations. Cells were incubated in ELISPOT plates in the presence of an antigen for 14-16 hrs after which they were washed off and secondary biotinylated antibody (Mabtech) was added. After two hour incubation the secondary antibody was washed off before addition of streptavidin conjugated alkaline phosphatase (Mabtech) for 1 hr. Next, unbound enzyme was washed off and the assay was developed by adding BCIP/NBT subtrate (Mabtech). Developed ELISPOT plates were analyzed on CTL Immunospot S6 Ultimate-V analyzer with ImmunoSpot software, version 5.1. […]

| Sequence | double positive (DP) CD4+ cells ([1]; healthy donor Buf-M-01, IFN-gamma and TNF-alfa) [%] | double positive (DP) CD4+ cells ([1]; healthy donor Buf-M-02, IFN-gamma and TNF-alfa) [%] | intracellular cytokine staining for IFNy and TNFα production [1] | CD8+ T cell response in intracellular cytokine staining ([1]; one cancer patient, FIG. 9) | CD8+ DP cells ([1]; prostate cancer patient UR12, control 0.5%, FIG. 9) [%] | CD4+ T cell response in intracellular cytokine staining ([1]; two healthy donors, Example 1, FIG. 6) | donors with significant IFNy ELISPOT responses ([2]; 8 melanoma patients, 4 prostate cancer patients and 13 healthy donors (15 out of 25), FIG. 8) [%] | screened donors with significant IFNy ELISPOT responses ([2]; 33 HDs and 19 cancer patients with solid tumors, FIG. 14A) | IFNγ ELISPOT response ([2]; listed as ARG2-1) | IFNγ ELISPOT response ([2]; listed as Arg2_1) | AML patients with a significant IFNy ELISPOT response ([2]; PBMCs from patients diagnosed with AML, FIG. 14A) | IFNy ELISPOT response ([2]; healthy donors and cancer patients, FIG. 14) | IFNy ELISPOT response ([2]; validation of other regions, PBMCs from four healthy donors, FIG. 5) | IFNy ELISPOT response ([2]; validation of other regions, PBMCs from four healthy donors, FIG. 5, listed as Arg2_1) | donors in which A2L2 immune responses were higher than ARG2-1 responses ([2]; 6 healthy donors, not significant (p=0.0625), FIG. 15B) | IFNy ELISPOT response ([2]; 30 healthy donors and 18 cancer patients, FIG. 15) | donors with IFNy ELISPOT responses ([2]; 30 healthy donors and 18 cancer patients, FIG. 15C) | IFNy ELISPOT response to long peptides ([2]; PBMCs from 6 healthy donors stimulated once, FIG. 15A) | immune responses compared to ARG2-1 responses in the same donor ([2]; not significant (p=0.7038), FIG. 15E) |
| --- | --- | --- | --- | --- | --- | --- | --- | --- | --- | --- | --- | --- | --- | --- | --- | --- | --- | --- | --- |
| LQTRVHSILKKSVHSVAVIG (listed as Homo sapiens) [ARG2_1, polypeptide derived from human Arginase2, aa11-30] | 0.2 | 0.1 | primarily showed CD4+ responses | release more of IFN-gamma (y-axis) and TNF-alfa (x-axis) | 0.9 | reacting specifically; also recorded: release both IFN-gamma (y-axis) or TNF-alfa (x-axis) | 60 | around 75% | highest and most frequent responses | highest responses | 3 out of 9 | Strong and frequent responses; also recorded: widely recognized | Strong and prominent responses | strong and prominent responses | – | – | – | – | – |
| SLRGSLSRLLQTRVHSILKKSVHSVAVIGAPFS (listed as Homo sapiens) [A2L2, long ARG2 peptide, aa2-34, 33-mer] | – | – | only CD4+ responses | – | – | – | – | – | – | – | – | – | – | – | 5 out of 6 | strong and frequent CD4+ T-cell responses | about 80% | strongest and most frequent immune responses | on average higher |
